Reference: patent publication US20100055093A1, “PAN-CELL SURFACE RECEPTOR-SPECIFIC THERAPEUTICS” (RECEPTOR BIOLOGIX INC., priority 2006, published 2010)
“Also recorded” adds a separate entry of the source. Marks after values point to notes of the source that are not given here. Blank lines part the entries; values can stand above or below the molecule they belong to.

Columns and labels:
HER3 = target: T1, HER3 (Homo sapiens, UniProt P21860); test: ELISA-based HER receptor phosphorylation assay, HER3; type: cell-based; conditions: HRG; for maximal inhibition of HER3 phosphorylation: 600 nM protein; for IC50: read-out: IC50, inhibition of HER3 phosphorylation
T1 construct: endogenous in cells
Description: (§1) Phosphorylation of HER receptors was assessed in an ELISA-based HER Receptor phosphorylation assay. Various cells (A431, MCF7, SK-BR3, SK-OV3, MCF7/HER2) were serum-starved in serum free medium for about 24 hr.
(§2) Cells were lysed on ice for 15 min and cell lysate were applied to a 96-well plate pre-coated with the respective receptor-specific capture antibodies (antibodies were purchased from R & D System) by manufacture recommended concentrations (0.4 to 4 ug/ml) and condition (in PBS, room temperature, overnight). Cell lysates were incubated with the capture Ab plate for 3 hrs at room temperature. Plates were washed 3× with PBST buffer. Anti-phosphotyrosine antibody clone 4G10 HRP-conjugated (Upstate) were diluted at 1:1000 in 1% of BSA.PBS and added to the plates, 100 μl/well for 1 hr to detect specifically HER receptors phosphorylated on tyrosine. After 3× PBST wash, the plates were developed by adding 100 μl of substrate solution (TMB, Sigma) and stopped by 50 μl of SDS stop solution. The optical density was determined by microplate reader at 650 nm (Molecular Devices, VERSAmax).

HER2 = target: T2, HER2 (Homo sapiens, UniProt P04626); test: ELISA-based HER receptor phosphorylation assay, HER2; type: cell-based; conditions: MCF7/HER2 cells, HRG, 600 nM protein
T2 construct: endogenous in cells
Description: as §1, §2

A431 tumor bearing mice = test: Pilot toxicity study in A431 tumor bearing mice; type: in vivo, nude mice
Description: Mice were obtained from the commercial suppliers (Harlan, UK). The mice were 4-6 weeks old at the start of the study. […] The room was air-conditioned by a system designed to maintain an air temperature range of 23±2° C. Mice were housed in groups of 2 or 5 during the procedure in plastic cages (Techniplast UK) with irradiated bedding and provided with both nesting materials and environmental enrichment.
Cells were injected subcutaneously into mice at 1×10^7 cells in a volume of 100 μl.
For the pilot toxicity study, mice were allocated to their treatment groups and treatment began on day 5 for 2 weeks in a dosing volume of 150 μl per injection. […] Tumor dimensions were recorded (calliper measurement of length and width and tumor cross-sectional area and volume calculated) three times weekly and body weight measured weekly.
Each mouse remained in the study until terminated, or until necessitate removal of that mouse from the study. Animals were terminated if the tumor size becomes excessive or any adverse effects are noted. At termination the mice were anaesthetized (Hypnorm/Hynovel) and ˜1 ml blood removed by cardiac puncture, processed for plasma, frozen for both the pilot and therapeutic study. The mice were then terminated by an approved S1 method.
Pilot toxicity study was terminated after 12 days of dosing in order to collect plasma samples 3 hours after dosing. […]

A431 s.c. tumor = test: Therapeutic evaluation in A431 s.c. human tumor xenograft model; type: in vivo, nude mice
Description: Mice were obtained from the commercial suppliers (Harlan, UK). The mice were 4-6 weeks old at the start of the study. […] The room was air-conditioned by a system designed to maintain an air temperature range of 23±2° C. Mice were housed in groups of 2 or 5 during the procedure in plastic cages (Techniplast UK) with irradiated bedding and provided with both nesting materials and environmental enrichment. […] Tumor dimensions were recorded (calliper measurement of length and width and tumor cross-sectional area and volume calculated) three times weekly and body weight measured weekly. Each mouse remained in the study until terminated, or until necessitate removal of that mouse from the study. Animals were terminated if the tumor size becomes excessive or any adverse effects are noted. At termination the mice were anaesthetized (Hypnorm/Hynovel) and 1 ml blood removed by cardiac puncture, processed for plasma, frozen for both the pilot and therapeutic study. The mice were then terminated by an approved S1 method. For the therapeutic study, the tumors were excised, weighed, measured and fixed in formalin. Body weight data, tumor growth and final tumor weight were recorded and reported in spreadsheet and graphical format. Statistical analysis was performed if appropriate using Minitab. […] An extra group for the therapeutic study was added by PRECOS as below. Group 9: 30 mg/kg human IgG i.p. 3 times weekly. Iressa was prepared by PRECOS in 10% DMSO & 5% Cremaphor in PBS. Tumors were initiated with 2×10^6 cells per mouse for the therapeutic study.

heregulin (HRG) = test: 125I-HRG binding with BS3 cross-linking and SDS-PAGE; conditions: for binding of 125I-HRG: 5 nM 125I-HRG, BS3 cross-linking, SDS-PAGE
Description: 1 mM of the BS3 crosslinker was added at the end of the binding assay to cross-link the bound molecules. Binding reactions were separated on an SDS-PAGE gel.
(§3) Western blots were probed with anti-His antibody to compare protein levels.

MCF7 cells = test: Ligand-stimulated cell proliferation, Alamar Blue; type: cell-based; conditions: MCF7 stimulated by HRGβ, at 1 μm
Description: Cell lines MCF7, ZR75-1, ME180 were purchased from ATCC and kept in 10% of FBS DMEM. Cells were seeded at 2000 per well in 96-well plate in 1% FBS supplemented DMEM. After 2-3 hr of seeding, increasing concentrations of candidate HER ECD derivatives were added to the culture in the present of ligands (EGF or HRGβ). Cells were incubated at 37° C. for about 72 hr. Cells relative density were measured by Alamar Blue method. Alamar Blue (Sigma) was prepared in PBS at concentration of 4 uM, added to the microplate at 1/10 volume of culture medium (final concentration 0.4 uM) and plates returned to the incubator. Fluorescence was read at Ex.=530 nm/Em.=590 nm after 2-4 hours at 37° C.

EGF = EGF (Homo sapiens, UniProt P01133); test: 125I-EGF binding with BS3 cross-linking and SDS-PAGE; conditions: supernatant of transfected 293T cells, 5 nM 125I-EGF, BS3 cross-linking, SDS-PAGE
Chain of EGF (P01133 971-1023 limits assumed): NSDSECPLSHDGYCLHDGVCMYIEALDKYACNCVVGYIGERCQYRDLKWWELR
Description: BS^3, a chemical crosslinker (Pierce) was added at the end of the binding assay to cross-link the bound molecules. Samples were separated on an SDS-PAGE gel and exposed to a film for detection.
as §3

[1] = target: the molecule itself; test: self-association by size exclusion chromatography (apparent over calculated molecular weight)
Description: This methodology permits simplified analysis of the ability of receptor ectodomains to associate as either homodimers or heterodimers. To perform molecular size exlusion analysis, eluted molecules were compared to reference standards. […] Smaller volumes elute in the retained volume of the column, while larger molecules elute in smaller volumes according to their increasing molecular mass.
Molecular size exclusion analysis was performed using a A TSK3000 size exclusion column (Tosoh Bioscience, Montgomeryville, Pa.) equilibrated with PBS at a flow rate of 0.7 ml/min. Gel filtration standards (BioRad, Hercules, Calif.) were used to calibrate the column. Their elution volumes and molecular weights were plotted. Elution volumes were determined for each unknown by injection of 30 μg of each molecule in PBS and their apparent molecular weights calculated. Flow was maintained over the column between injections. Molecular weights were determined using a Standard curve for molecular weight standards.

[2] = target: T3, neuregulin-1 beta 1 (NRG1β1) (human, UniProt Q02297-6 177-241, limits assumed); test: 125I-HRG (5 nM) cross-linking (BS3), normalised by anti-HER3 Western blot densitometry
T3 construct: also called HRG; heregulin
T3 sequence (looked up): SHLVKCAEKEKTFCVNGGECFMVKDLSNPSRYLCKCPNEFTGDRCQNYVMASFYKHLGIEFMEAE
Description: 1 mM of the BS₃ crosslinker was added at the end of the binding assay to cross-link the bound molecules. Binding reactions were separated on an SDS-PAGE gel. The protein gel was dried and exposed to a film for 2 and 6 hours.

[3] = Group 5, 38 mg/kg Iressa, group mean
[4] = Group 6, 75 mg/kg Iressa, group mean

maximal inhibition of HER3 phosphorylation (HER3; MCF7/HER2 cells): about 55%
maximal inhibition of HER2 phosphorylation (HER2): about 55%
Molecule: HF210T: truncated HER2 ECD, residues 1-573, SEQ ID NO:16

Molecule: COc1cc2ncnc(Nc3ccc(F)c(Cl)c3)c2cc1OCCCN1CCOCC1 [Iressa, Gefitinib]
tumor size prior to termination (A431 tumor bearing mice; Iressa treatment groups (groups 2 and 3)): inhibition of tumor size
adverse effects (A431 tumor bearing mice; i.p., 30 mg/kg RB200h, 75 mg/kg IRESSA, or 10 mg/kg RB200h with 38 mg/kg IRESSA, 12 days of dosing): No adverse effects
tumor growth rate in comparison to the vehicle group (A431 s.c. tumor; 38 mg/kg Iressa (Group 5)): did not
reduction of final tumor weight (A431 s.c. tumor; 75 mg/kg Iressa (Group 6)): 69%
tumor growth rate in comparison to the vehicle group (A431 s.c. tumor; 75 mg/kg Iressa i.p. days 1-5 cycled weekly (Group 6)): significantly decreased
Tumor volume (mm^3) Day 7 (A431 s.c. tumor; [3]): 51.2 mm^3
Tumor volume (mm^3) Day 10 (A431 s.c. tumor; [3]): 79.4 mm^3
Tumor volume (mm^3) Day 12 (A431 s.c. tumor; [3]): 108.8 mm^3
Tumor volume (mm^3) Day 14 (A431 s.c. tumor; [3]): 152.6 mm^3
Tumor volume (mm^3) Day 17 (A431 s.c. tumor; [3]): 220.6 mm^3
Tumor volume (mm^3) Day 19 (A431 s.c. tumor; [3]): 259.6 mm^3
Tumor volume (mm^3) Day 21 (A431 s.c. tumor; [3]): 396.9 mm^3
Tumor volume (mm^3) Day 24 (A431 s.c. tumor; [3]): 477.0 mm^3
Tumor volume (mm^3) Day 25 (A431 s.c. tumor; [3]): 491.1 mm^3
Tumor volume (mm^3) Day 26 (A431 s.c. tumor; [3]): 510.1 mm^3
Tumor weight (A431 s.c. tumor; Group 5, 38 mg/kg Iressa, final tumor weight, group mean): 0.267 g
Tumor volume (mm^3) Day 7 (A431 s.c. tumor; [4]): 48.6 mm^3
Tumor volume (mm^3) Day 10 (A431 s.c. tumor; [4]): 72.5 mm^3
Tumor volume (mm^3) Day 12 (A431 s.c. tumor; [4]): 87.1 mm^3
Tumor volume (mm^3) Day 14 (A431 s.c. tumor; [4]): 104.3 mm^3
Tumor volume (mm^3) Day 17 (A431 s.c. tumor; [4]): 123.1 mm^3
Tumor volume (mm^3) Day 19 (A431 s.c. tumor; [4]): 112.1# mm^3
Tumor volume (mm^3) Day 21 (A431 s.c. tumor; [4]): 150.1# mm^3
Tumor volume (mm^3) Day 24 (A431 s.c. tumor; [4]): 180.5# mm^3
Tumor volume (mm^3) Day 25 (A431 s.c. tumor; [4]): 178.6# mm^3
Tumor volume (mm^3) Day 26 (A431 s.c. tumor; [4]): 181.9# mm^3
Tumor weight (g) (A431 s.c. tumor; Group 6, 75 mg/kg Iressa, final tumor weight, group mean): 0.095# g

maximal inhibition of HER3 phosphorylation (HER3; MCF7/HER2 cells): about 35%
maximal inhibition of HER2 phosphorylation (HER2): about 35%
Molecule: HF220T: truncated HER2 ECD, residues 1-508, SEQ ID NO:14

binding of 125I-HRG (heregulin (HRG)): equivalent binding
maximal inhibition of HER3 phosphorylation (HER3; MCF7 cells): about 78%
IC50 (HER3; MCF7 cells): 39 nM
maximal inhibition of HER3 phosphorylation (HER3; SK-BR3 cells): about 75%
Molecule: HF310T: truncated HER3 ECD, residues 1-500, SEQ ID NO:20
inhibition of proliferation (MCF7 cells): about 95%

binding of 125I-HRG (heregulin (HRG)): equivalent binding; also recorded: bound
binding of 125I-HRG (heregulin (HRG); listed as HER3-621/Fc): binds
Molecule: HFD300: full-length HER3 ECD (1-621) fused to Fc, SEQ ID NO:46; homodimer

Molecule: HFD200: full-length HER2 ECD fused to Fc, SEQ ID NO:42
binding of 125I-HRG (heregulin (HRG)): did not show any detectable
binding of 125I-EGF (EGF): did not show any detectable
binding of 125I-EGF (EGF; listed as HER2-650/Fc): no binding

binding of 125I-HRG (heregulin (HRG)): equivalent binding
Molecule: HFD310: truncated HER3 ECD (1-500) fused to Fc, SEQ ID NO:44

Molecule: HFD400: full-length HER4 ECD fused to Fc, SEQ ID NO:48
binding of 125I-HRG (heregulin (HRG)): bound
binding of 125I-HRG (heregulin (HRG); listed as HER4-650/Fc): binds
binding of 125I-EGF (EGF): no binding

binding of HRG as compared to the other derivatives tested (heregulin (HRG); normalized by anti-HER3 Western blot densitometry): about 10%
maximal inhibition of HER3 phosphorylation (HER3; MCF7 cells): about 38%
IC50 (HER3; MCF7 cells): 48 nM
maximal inhibition of HER3 phosphorylation (HER3; SK-BR3 cells): about 55%
Molecule: HF300T: full-length HER3 ECD, residues 1-621, SEQ ID NO:26

B1: HF410T (HER4-485) (receptor)
chain: QSVCAGTENKLSSLSDLEQQYRALRKYYENCEVVMGNLEITSIEHNRDLSFLRSVREVTGYVLVALNQFRYLPLENLRIIRGTKLYEDRYALAIFLNYRKDGNFGLQELGLKNLTEILNGGVYVDQNKFLCYADTIHWQDIVRNPWPSNLTLVSTNGSSGCGRCHKSCTGRCWGPTENHCQTLTRTVCAEQCDGRCYGPYVSDCCHRECAGGCSGPKDTDCFACMNFNDSGACVTQCPQTFVYNPTTFQLEHNFNAKYTYGAFCVKKCPHNFVVDSSSCVRACPSSKMEVEENGIKMCKPCTDICPKACDGIGTGSLMSAQTVDSSNIDKFINCTKINGNLIFLVTGIHGDPYNAIEAIDPEKLNVFRTVREITGFLNIQSWPPNMTDFSVFSNLVTIGGRVLYSGLSLLILKQQGITSLQFQSLKEISAGNIYITDNSNLCYYHTINWTTLFSTINQRILESRGPFEQKLISEEDLNMHTGHHHHHH
M. Wt. (ap):M. Wt. [1]: 1.98

binding relative to the other derivatives tested [2]: ~10%
B2: HER3-621, full-length HER3 ECD (receptor)
chain: SEVGNSQAVCPGTLNGLSVTGDAENQYQTLYKLYERCEVVMGNLEIVLTGHNADLSFLQWIREVTGYVLVAMNEFSTLPLPNLRVVRGTQVYDGKFAIFVMLNYNTNSSHALRQLRLTQLTEILSGGVYIEKNDKLCHMDTIDWRDIVRDRDAEIVVKDNGRSCPPCHEVCKGRCWGPGSEDCQTLTKTICAPQCNGHCFGPNPNQCCHDECAGGCSGPQDTDCFACRHFNDSGACVPRCPQPLVYNKLTFQLEPNPHTKYQYGGVCVASCPHNFVVDQTSCVRACPPDKMEVDKNGLKMCEPCGGLCPKACEGTGSGSRFQTVDSSNIDGFVNCTKILGNLDFLITGLNGDPWHKIPALDPEKLNVFRTVREITGYLNIQSWPPHMHNFSVFSNLTTIGGRSLYNRGFSLLIMKNLNVTSLGFRSLKEISAGRIYISANRQLCYHHSLNWTKVLRGPTEERLDIKHNRPRRDCVAEGKVCDPLCSSGGCWGPGPGQCLSCRNYSRGGVCVTHCNFLNGEPREFAHEAECFSCHPECQPMGGTATCNGSGSDTCAQCAHFRDGPHCVSSCPHGVLGAKGPIYKYPDVQNECRPCHENCTQGCKGPELQDCLGQTLVLIGKTLESRGPFEQKLISEEDLNMHTGHHHHHH
notes: also called HF300; HF300T
M. Wt. (ap):M. Wt. [1]: 2.66
